Consider six molecules from US5925668A, “Thioctic metabolites and methods of use thereof” (priority 1998, dated 1999).

SMILES strings stand for the structures.

Data set [1] can be described thus: Stability in aqueous solutions. Particulars: compared to plasma. Format: physicochemical.
A short description of data set [2]: Plasma pharmacokinetics and metabolism of lipoic acid after oral administration of 1 gram R-lipoic acid to a healthy volunteer (HPLC/ECD). Format: in vivo, human. The protocol:
The HPLC system consisted of a pump (thermo separation products, Spectra SERLES P100,Breda, the Netherlands), an auto-injector (Gilson, Meyvis, model 232 XL, Bergen op Zoom, the Netherlands) with a […] sample loop and a dilutor (Gilson, Meyvis, model 401 C, Bergen op Zoom, the Netherlands). The system was equipped with an electrochemical detector (Coulochem ESA, model 5100 A, Interscience, Breda, the Netherlands) and an analytical cell (ESA, model 5010). Interscience, Breda, the Netherlands) which consisted of two cell compartments.
The separations were performed using a Hypersil C 18 column (125 mm×4.6 mm i.d., […] particle size) and a mobile phase of phosphate buffer (50 mM KH2 PO4 /H3 PO4, pH 2.7) and acetonitrile (65:35, v/v). Before use, the eluent was vacuum filtrated over a […] filter. The flow rate was 0.7 ml/min.
Sample Collection and Preparation
(§1) To a healthy volunteer (82 kg), who fasted overnight, 1 gram of R-lipoic acid (4 capsules of 250 mg) was administered orally. At several time points (0-5 hr), blood samples of 3 ml were taken from a venous cannula into Li-heparine containing tubes. The samples were centrifuged (2000 g at 4° C. for 5 min) and the plasma was analyzed immediately. The proteins in the plasma were precipitated by adding 1 ml ethanol and […] 85% (g/g) H3 PO4 to […] plasma. Thereafter, the sample was thoroughly mixed on a vortex mixer and placed on ice. After 15 min it was centrifuged at 2000 g for 10 min at 4° C. […] of the supernatant were brought onto the column. Quality control samples were prepared by spiking plasma with a small volume (less than 1%) of an ethanol solution of the compound.
For the elucidation of the structure of the metabolites, the plasma obtained at 69, 92 and 119 min was pooled (approximate total volume was 3 ml). The pooled plasma was acidified with 3 ml 3 M sulfuric acid. Thereafter, the sample was extracted twice with 12 ml HPLC-grade ethylacetate (Baker Phillipsburg, N.J.). After evaporation of the ethylacetate the compounds were methylated with diazomethane for 30 min at room temperature. Subsequently, the compounds were dissolved in […] ethanol. A volume of […] was injected on a GC/MS system using a split injection ratio of 1/15. The instrument used was a HP 5890 GC equipped with a HP 5970 mass selective detector. Gas chromatography was performed on a CPSil 5 CB WCOT capillary column (25 m, […] i.d., […]; Chrompack, Middelburg, the Netherlands). While the temperature of the injector and transfer line were kept at 250° C., two oven temperature programs were required to obtain satisfactory separation of all lipoic acid related components from endogenous plasma components. The oven temperature was programmed from 60° C. (kept for 2 min) to 180° C. (at 20° C./min) with an isothermal period (10 min) and subsequent temperature increase to 288° C. (at 20° C./min) and another isothermal period; this produced satisfactory results for all components except bisnorlipoic acid. Bisnorlipoic acid could be separated from background components by using a program from 60° C. (kept for 2 min) to 160° C. (at 20° C./min with an isothermal period (15 min) and subsequent raise to 288° C. (at 20° C./min). Detection was performed by using 70 eV impact ionization.
The Pharmocokinetic Analysis
A volunteer was given 1 gram R-lipoic acid. […] Somewhat later, an unknown metabolite was observed which eluted at 5.5 min (peak nr. 6 in FIG. 2). Thereafter, a second unknown appeared which eluted at 4.7 min (peak nr. 5 in FIG. 2). Subsequently, ca. 45 after administration, bisnorlipoic acid could be detected (peak nr. 4 in FIG. 2). […] The time course of the plasma concentrations of lipoic acid, the two unknown metabolites and bisnorlipoic acid are shown in FIG. 3. Around 45 min a maximum in the lipoic acid concentration is reached. At 75 min a diet containing a high amount of fat was consumed. […]

Data set [3] is classed as in vitro ADME. The method, then: as §1
The stability of lipoic acid in plasma was evaluated by spiking plasma at 0.5 mg/ml and storing it at -25° C. […]
The stability of dihydrolipoic acid in plasma was also evaluated by spiking plasma at 0.5 mg/ml and storing it at -25° C. After approximately 20 hours, ca. 6% of the theoretical value was detected. […] Lipoic acid was also detected in the quality control samples of dihydrolipoic acid used for determination of the accuracy and precision. […] This means that the sample is immediately analyzed after blood sampling, and the pH is reduced to increase the stability of thiols. […]

For the next data set, the system named is human cells in culture. Particulars: cited from earlier work.
The subject of another data set is human erythrocytes. The conditions noted are these: cited from earlier work.

As to `O=C(O)CCCC[C@@H](S)CCS` (racemic) [dihydrolipoic acid], the “stability in aqueous solutions” value in data set [1] is listed as “more stable”.

Consider `O=C(O)CCCC[C@@H]1CCSS1` (racemic) [lipoic acid, 1,2-dithiolane-3-pentanoic acid], for which the “free plasma concentration before administration” value in data set [2] (human, in vivo) is less than 7.8 ng/mL. Moreover, in data set [2] (human, in vivo, po), the concentration peaked (Cmax) at 1150 ng/mL, the half life came to 0.933 h and the “time of first appearance in plasma” value was 30 min. Moreover, the half-life – broadly, the time needed for the level to fall by half in the phase considered – in data set [2] (human, in vivo, po, half life) was roughly 1 h. In data set [2] (human, in vivo, po, time of (first) maximum in plasma concentration), the Tmax (in general, the time from dosing to the highest level) was roughly 0.75 h. Further, the Tmax in data set [2] (human, in vivo, po, time of maximum plasma concentration) is 1.53 h. Further, in data set [2] (oral 1 gram R-lipoic acid), the elimination kinetics result is “first order kinetics”, the “presence in plasma after three hours” value is “essentially absent from the plasma” and the “time of first appearance in plasma” value is reported as “Thirty minutes”. Further, in data set [3], the stability in plasma result is listed as “stable in plasma for at least one week”. Further, the “reduction of lipoic acid into dihydrolipoic acid” value with human cells in culture is “reduction of lipoic acid was shown”. The “reduction of lipoic acid into dihydrolipoic acid” value with human erythrocytes was “reduction of lipoic acid was shown”.

On to `O=C(O)CC(O)CCC1CCSS1` (centres unmarked) [3-hydroxylipoic acid], for which the “order of reaching maximal plasma level” value in data set [2] (human, in vivo, po) is given as “reaches its maximal level before the compound from peak 6 reaches maximum”.

For `O=C(O)CC(=O)CCC1CCSS1` (centres unmarked) [3-ketolipoic acid], in data set [2] (human, in vivo, po), the “order of reaching maximal plasma level” value is on record as “reaches its maximum plasma level just before bisnorlipoic acid reaches its maximum” and the “time of maximum plasma concentration” value was 119 min.

With `O=C(O)CCC1CCSS1` (centres unmarked) [bisnorlipoic acid], in data set [2] (human, in vivo, po), the “time of first detection in plasma” value is “ca. 45” and the “time of maximum plasma concentration” value was determined as 189 min.

Turning to `O=C(O)C1CCSS1` (centres unmarked) [tetranorlipoic acid], the “detection in plasma after administration” value in data set [2] (human, in vivo, po) is on record as “Neither dihydrolipoic acid nor tetranorlipoic acid were found”.
